Data taken from paper PMC11448925, “Crystal structure of guanosine 5′-monophosphate synthetase from the thermophilic bacterium Thermus thermophilus HB8” (Acta Crystallographica Section F: Structural Biology …, 2024).

B1: Guanosine 5′-monophosphate (GMP) synthetase (GuaA) from Thermus thermophilus HB8 (enzyme, Thermus thermophilus (strain HB8))
chain: MVLVLDFGSQYTRLIARRLRELRAFSLILPGDAPLEEVLKHRPQALILSGGPRSVFDPDAPRPDPRLFSSGLPLLGICYGMQLLAQELGGRVERAGRAEYGKALLTRHEGPLFRGLEGEVQVWMSHQDAVTAPPPGWRVVAETEENPVAAIASPDGRAYGVQFHPEVAHTPKGMQILENFLELAGVKRDWTPEHVLEELLREVRERAGKDRVLLAVSGGVDSSTLALLLAKAGVDHLAVFVDHGLLRLGEREEVEGALRALGVNLLVVDAKERFLKALKGVEDPEEKRKIIGREFVAAFSQVARERGPFRFLAQGTLYPDVIESAGGHGAAKIKSHHNVGGLPEDLEFELLEPFRLLFKDEVRELALLLGLPDTLRLRHPFPGPGLAVRVLGEVTEERLEILRRADDIFTSLLREWGLYEKVAQALAVLTPVRSVGVAGDERKYGYVLALRAVTTEDFMTADWARLPLEFLDEAARRITRRVPEIGRVVYDLTSKPPATIEWE
notes: GMP synthetase (GuaA), Thermus thermophilus HB8, gene TTHA1552; The apo structure (2ywb) was solved with native protein; the XMP complex (2ywc) was solved from selenomethionyl protein crystals; No tag is stated for the construct; also called TtGuaA; TTHA1552

Tests used:
[1] = target: T1, TtGuaA (GMP synthetase, GuaA) (Thermus thermophilus, UniProt Q5SI28); experiment: X-ray crystallography, […] Å; format: binding; settings: co-crystal with 10 mM XMP, pH 4.4, 20 °C; site between ATPPase and dimerization domains
T1 construct: full length, 503 residues, no tag; pET-11a in E. coli Rosetta(DE3); selenomethionyl crystals for the XMP complex; homodimer
T1 sequence (Q5SI28 1-503): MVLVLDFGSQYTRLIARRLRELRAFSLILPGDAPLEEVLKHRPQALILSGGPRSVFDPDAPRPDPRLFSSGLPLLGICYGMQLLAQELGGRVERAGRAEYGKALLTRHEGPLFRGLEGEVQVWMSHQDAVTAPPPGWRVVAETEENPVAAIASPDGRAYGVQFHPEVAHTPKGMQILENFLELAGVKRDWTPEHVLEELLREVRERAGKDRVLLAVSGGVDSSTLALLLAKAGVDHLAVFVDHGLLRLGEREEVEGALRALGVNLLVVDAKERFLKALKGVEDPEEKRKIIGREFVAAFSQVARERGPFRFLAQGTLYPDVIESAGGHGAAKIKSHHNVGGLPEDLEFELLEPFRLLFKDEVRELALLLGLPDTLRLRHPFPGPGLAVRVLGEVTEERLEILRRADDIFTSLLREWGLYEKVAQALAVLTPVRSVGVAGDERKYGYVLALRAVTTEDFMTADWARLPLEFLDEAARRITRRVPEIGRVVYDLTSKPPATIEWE

[2] = target: the molecule itself; experiment: SEC; size-exclusion chromatography of purified TtGuaA; conditions of the estimate not told

Row | Molecule | X-ray crystallography, 2.20 Å [1] | stoichiometry N [2]
1 | O=c1[nH]c(=O)c2ncn([C@@H]3O[C@H](COP(=O)(O)O)[C@@H](O)[C@H]3O)c2[nH]1 [XMP] | In TtGuaA–XMP, one XMP molecule was bound to each monomer. | –
2 | B1 | – | 2
